Patent publication US20230416271A1, “HETEROARYLQUINAZOLINE COMPOUNDS AS PROTEIN KINASE INHIBITORS” (CHENGDU CYNOGEN BIO-PHARMACEUTICAL TECHNOLOGY CO., LTD., priority 2020, published 2023)

Tests used:
Assay type in all cases: biochemical
CDK6/Cyclin D3 = CDK6/Cyclin D3 (Homo sapiens (Human), UniProt Q00534); assay: Kinase activity assay (Caliper Mobility Shift Assay), CDK6/Cyclin D3
Protocol: (§1) The inhibitory effect of compounds against the kinase CDK4/cyclin D3 was detected by Caliper Mobility Shift Assay method. The final concentration of the compounds to be tested was set at 10 concentrations starting from 1 uM by 3-fold serial dilution. 5 μL of compounds at 5-fold final concentration and 10 μL of CDK4/cyclin D3 kinase solution at a final concentration of 10 nM was added to a 384-well reaction plate, respectively. The plate was pre-incubated for 10 min at room temperature (with negative control wells containing 10 uL of kinase buffer and 5 uL of 5% DMSO; positive control wells containing 10 μL of kinase solution and 5 uL of 5% DMSO). The reaction was initiated by adding 10 μL of ATP at a final concentration of 250 uM and the corresponding substrate peptide mixture at room temperature for 150 minutes. 30 uL of stop detection solution containing EDTA was added to stop the kinase reaction. Caliper EZ Reader was used to read the conversion rate. Conversion inhibition rate %=(average conversion rate of positive control %−conversion rate of sample %)/(average conversion rate of positive control %−average conversion rate of negative control %). wherein: negative control wells represent the conversion rate readings of wells without enzymatic activity; positive control wells represent conversion readings for wells with no compound inhibition. The log(inhibitor) vs. response—Variable slope of the analysis software GraphPad Prism 5 was used with log concentration value as the X-axis and the percent inhibition rate as the Y-axis to fit the dose-response curve, the IC50 value of each compound on the enzyme activity was thus obtained. Calculation formula: Y=Bottom+(Top−Bottom)/(1+10^((Log IC50−X)*HillSlope)).
(§2) The IC50 values and inhibitory activities of compounds of the present disclosure on CDK6/Cyclin D3, CDK2/Cyclin A2, and CDK9/cyclin T1 were tested in a similar manner.

CDK4/cyclin D3 = CDK4/cyclin D3 (Homo sapiens (Human), UniProt P11802); assay: Kinase activity assay (Caliper Mobility Shift Assay), CDK4/cyclin D3; conditions: 10 nM kinase, 250 uM ATP
Chain of CDK4/cyclin D3 (P11802 whole entry, species assumed): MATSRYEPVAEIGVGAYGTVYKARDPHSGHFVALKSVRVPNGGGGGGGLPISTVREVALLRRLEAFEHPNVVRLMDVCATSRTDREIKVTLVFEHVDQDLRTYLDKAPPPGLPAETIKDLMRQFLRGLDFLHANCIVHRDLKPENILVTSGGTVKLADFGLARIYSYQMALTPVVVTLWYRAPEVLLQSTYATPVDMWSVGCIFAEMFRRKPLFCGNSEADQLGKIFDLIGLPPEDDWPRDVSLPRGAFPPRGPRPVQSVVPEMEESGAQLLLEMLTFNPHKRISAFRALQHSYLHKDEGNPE
Chain of CDK4/cyclin D3 (P30281 whole entry partner, species assumed): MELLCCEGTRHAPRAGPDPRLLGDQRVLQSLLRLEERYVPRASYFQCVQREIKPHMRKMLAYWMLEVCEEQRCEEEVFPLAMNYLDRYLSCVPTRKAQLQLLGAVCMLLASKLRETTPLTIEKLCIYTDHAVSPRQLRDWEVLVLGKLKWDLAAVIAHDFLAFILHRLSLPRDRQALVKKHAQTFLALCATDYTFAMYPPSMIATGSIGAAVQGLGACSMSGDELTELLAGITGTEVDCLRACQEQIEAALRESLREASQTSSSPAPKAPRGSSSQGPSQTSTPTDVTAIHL
Protocol: as §1

CDK2/Cyclin A2 = CDK2/Cyclin A2 (Homo sapiens (Human), UniProt P24941); assay: Kinase activity assay (Caliper Mobility Shift Assay), CDK2/Cyclin A2
Protocol: as §1, §2

Chain of CDK6/Cyclin D3 (Q00534 whole entry, species assumed): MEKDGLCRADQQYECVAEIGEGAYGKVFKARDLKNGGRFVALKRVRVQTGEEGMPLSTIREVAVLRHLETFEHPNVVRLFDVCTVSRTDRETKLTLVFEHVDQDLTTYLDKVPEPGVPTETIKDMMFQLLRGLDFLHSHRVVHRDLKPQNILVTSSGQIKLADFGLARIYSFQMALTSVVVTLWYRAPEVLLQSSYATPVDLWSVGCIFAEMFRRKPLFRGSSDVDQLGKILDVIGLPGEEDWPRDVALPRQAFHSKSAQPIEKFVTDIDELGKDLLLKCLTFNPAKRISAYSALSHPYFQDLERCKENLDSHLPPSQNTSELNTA
Chain of CDK6/Cyclin D3 (P30281 whole entry partner, species assumed): as the sequence (P30281 whole entry partner, species assumed) above

IC50 (CDK6/Cyclin D3) | IC50 (CDK4/cyclin D3) | IC50 (CDK2/Cyclin A2) | Structure (SMILES)
38 nM | 26 nM | 258 nM | CC(C)c1noc2ccc3cnc(N[C@H]4CC[C@H](Nc5ncccn5)CC4)nc3c12 [I.3, (1R,4R)-N^1-(9-isopropylisoxazolo[5,4-h]quinazolin-2-yl)-N^4-(pyrimidin-2-yl)cyclohexane-1,4-diamine]
68 nM | 47 nM | 249 nM | CC(C)c1noc2ccc3cnc(NC4CCNCC4)nc3c12 [I.4, 9-isopropyl-N-(piperidin-4-yl)isoxazolo[5,4-h]quinazolin-2-amine]
24 nM | 10 nM | 1 nM | CC(C)c1noc2ccc3cnc(NC4CCN(S(C)(=O)=O)CC4)nc3c12 [I.5, 9-isopropyl-N-(1-(methylsulfonyl)piperidin-4-yl)isoxazolo[5,4-h]quinazolin-2-amine]
12 nM | 5 nM | 1 nM | CC(C)c1noc2c(F)cc3cnc(NC4CCN(S(C)(=O)=O)CC4)nc3c12 [I.6, 6-fluoro-9-isopropyl-N-(1-(methylsulfonyl)piperidin-4-yl)isoxazolo[5,4-h]quinazolin-2-amine]
3 nM | 7 nM | 8 nM | CC(C)c1noc2c(Cl)cc3cnc(NC4CCN(S(C)(=O)=O)CC4)nc3c12 [I.7, 6-chloro-9-isopropyl-N-(1-(methylsulfonyl)piperidin-4-yl)isoxazolo[5,4-h]quinazolin-2-amine]
3 nM | 6 nM | 9 nM | CC(C)c1noc2c(Br)cc3cnc(NC4CCN(S(C)(=O)=O)CC4)nc3c12 [I.8, 6-bromo-9-isopropyl-N-(1-(methylsulfonyl)piperidin-4-yl)isoxazolo[5,4-h]quinazolin-2-amine]
7 nM | 6 nM | 5 nM | CC(C)c1noc2c(C(F)F)cc3cnc(NC4CCN(S(C)(=O)=O)CC4)nc3c12 [I.9, 6-(difluoromethyl)-9-isopropyl-N-(1-(methylsulfonyl)piperidin-4-yl)isoxazolo[5,4-h]quinazolin-2-amine]
71 nM | 72 nM | 49 nM | CC(C)c1noc2c(CO)cc3cnc(NC4CCN(S(C)(=O)=O)CC4)nc3c12 [I.10, (9-isopropyl-2-((1-(methylsulfonyl)piperidin-4-yl)amino)isoxazolo[5,4-h]quinazolin-6-yl)methanol]
24 nM | 10 nM | 1 nM | [2H]c1cc2cnc(NC3CCN(S(C)(=O)=O)CC3)nc2c2c(C(C)C)noc12 [I.11, 9-isopropyl-N-(1-(methylsulfonyl)piperidin-4-yl)isoxazolo[5,4-h]quinazolin-6-d-2-amine]
13 nM | 5 nM | 1 nM | Cc1cc2cnc(NC3CCN(S(C)(=O)=O)CC3)nc2c2c(C(C)C)noc12 [I.12, 9-isopropyl-6-methyl-N-(1-(methylsulfonyl)piperidin-4-yl)isoxazolo[5,4-h]quinazolin-2-amine]
6 nM | 3 nM | 1 nM | C[C@@]1(O)CCC[C@H]1c1noc2ccc3cnc(NC4CCN(S(C)(=O)=O)CC4)nc3c12 [I.13, (1R,2S)-1-methyl-2-(2-((1-(methylsulfonyl)piperidin-4-yl)amino)isoxazolo[5,4-h]quinazolin-9-yl)cyclopentan-1-ol]
8 nM | 5 nM | 2 nM | C[C@@]1(O)CCC[C@H]1c1noc2c(C(F)F)cc3cnc(NC4CCN(S(C)(=O)=O)CC4)nc3c12 [I.14, (1R,2S)-2-(6-(difluoromethyl)-2-((1-(methylsulfonyl)piperidin-4-yl)amino)isoxazolo[5,4-h]quinazolin-9-yl)-1-methylcyclopentan-1-ol]
8 nM | 10 nM | 2 nM | CC(C)c1noc2c1-c1nc(NC3CCN(S(C)(=O)=O)CC3)ncc1CC2 [I.15, 9-isopropyl-N-(1-(methylsulfonyl)piperidin-4-yl)-5,6-dihydroisoxazolo[5,4-h]quinazolin-2-amine]
> 500 nM | > 500 nM | > 500 nM | CC(C)n1nnc2ccc3cnc(N[C@H]4CC[C@H](N)CC4)nc3c21 [II.1, (1R,4R)-N1-(1-isopropyl-1H-[1,2,3]triazolo[4,5-h]quinazolin-8-yl)cyclohexane-1,4-diamine]
26 nM | 22 nM | 12 nM | CC(C)n1nnc2ccc3cnc(N[C@H]4CC[C@H](NC5CCNCC5)CC4)nc3c21 [II.3, (1R,4R)-N^1-(1-isopropyl-1H-[1,2,3]triazolo[4,5-h]quinazolin-8-yl)-N^4-(piperidin-4-yl)cyclohexane-1,4-diamine]
22 nM | 16 nM | 20 nM | COCCN[C@H]1CC[C@H](Nc2ncc3ccc4nnn(C(C)C)c4c3n2)CC1 [II.4, (1R,4R)-N^1-(1-isopropyl-1H-[1,2,3]triazolo[4,5-h]quinazolin-8-yl)-N^4-(2-methoxyethyl)cyclohexane-1,4-diamine]
34 nM | 22 nM | 140 nM | CC(C)n1nnc2ccc3cnc(N[C@H]4CC[C@H](Nc5ncccn5)CC4)nc3c21 [II.5, (1R,4R)-N^1-(1-isopropyl-1H-[1,2,3]triazolo[4,5-h]quinazolin-8-yl)-N^4-(pyrimidin-2-yl)cyclohexane-1,4-diamine]
12 nM | 10 nM | 35 nM | CC(C)n1nnc2ccc3cnc(N[C@H]4CC[C@H](N(C)C)CC4)nc3c21 [II.6, (1R,4R)-N^1-(1-isopropyl-1H-[1,2,3]triazolo[4,5-h]quinazolin-8-yl)-N^4,N^4-dimethylcyclohexane-1,4-diamine]
26 nM | 40 nM | 465 nM | CC(C)n1nnc2ccc3cnc(N[C@H]4CC[C@H](N5CCN(C6CCCC6)CC5)CC4)nc3c21 [II.7, N-((1R,4R)-4-(4-cyclopentylpiperazin-1-yl)cyclohexyl)-1-isopropyl-1H-[1,2,3]triazolo[4,5-h]quinazolin-8-amine]
35 nM | 26 nM | 356 nM | CC(C)n1nnc2ccc3cnc(N[C@H]4CC[C@H](N5CCN(C(=O)C6CC6)CC5)CC4)nc3c21 [II.9, Cyclopropyl(4-((1R,4R)-4-((1-isopropyl-1H-[1,2,3]triazolo [4,5-h]quinazolin-8-yl)amino)cyclohexyl)piperazin-1-yl) ketone]
46 nM | 22 nM | 336 nM | CC(C)n1nnc2ccc3cnc(N[C@H]4CC[C@H](N5CCN(C(=O)c6ccccc6)CC5)CC4)nc3c21 [II.10, (4-((1R,4R)-4-((1-isopropyl-1H-[1,2,3]triazolo[4,5-h]quinazolin-8-yl)amino)cyclohexyl)piperazin-1-yl)(phenyl) ketone]
15 nM | 8 nM | 1 nM | CC(C)n1nnc2ccc3cnc(NC4CCC(NS(C)(=O)=O)CC4)nc3c21 (stereo not drawn) [II.11, N-(4-((1-isopropyl-1H-[1,2,3]triazolo[4,5-h]quinazolin-8-yl)amino)cyclohexyl)methanesulfonamide]
89 nM | 51 nM | 151 nM | CC(C)n1nnc2ccc3cnc(NC4CCNCC4)nc3c21 [II.12, 1-isopropyl-N-(piperidin-4-yl)-1H-[1,2,3]triazolo[4,5-h] quinazolin-8-amine]
90 nM | 41 nM | 110 nM | CC(C)n1nnc2ccc3cnc(NC4CCN(C)CC4)nc3c21 [II.13, 1-isopropyl-N-(1-methylpiperidin-4-yl)-1H-[1,2,3]triazolo [4,5-h]quinazolin-8-amine]
5 nM | 3 nM | 0.2 nM | CC(C)n1nnc2ccc3cnc(NC4CCN(S(C)(=O)=O)CC4)nc3c21 [II.14, 1-isopropyl-N-(1-(methylsulfonyl)piperidin-4-yl)-1H-[1,2,3] triazolo[4,5-h]quinazolin-8-amine]
4 nM | 3 nM | 0.3 nM | CCS(=O)(=O)N1CCC(Nc2ncc3ccc4nnn(C(C)C)c4c3n2)CC1 [II.15, N-(1-(ethylsulfonyl)piperidin-4-yl)-1-isopropyl-1H-[1,2,3] triazolo[4,5-h]quinazolin-8-amine]
5 nM | 3 nM | 0.2 nM | CC(C)n1nnc2ccc3cnc(NC4CCN(S(=O)(=O)C5CC5)CC4)nc3c21 [II.16, N-(1-(cyclopropylsulfonyl)piperidin-4-yl)-1-isopropyl-1H-[1,2,3]triazolo[4,5-h]quinazolin-8-amine]
15 nM | 8 nM | 1 nM | CC(C)n1nnc2ccc3cnc(NC4CCN(S(=O)(=O)CC5CC5)CC4)nc3c21 [II.17, N-(1-((cyclopropylmethyl)sulfonyl)piperidin-4-yl)-1-iso-propyl-1H-[1,2,3]triazolo[4,5-h]quinazolin-8-amine]
